In assay [1] the test system is PEG-3. As to the kind of experiment: Peg3 promoter luciferase inhibitors, potency, dose response, cell-based, HeLa, CREF/GAPDH counter-screen panel (AID 624167). Particulars: HeLa PEG-Prom luciferase reporter, overnight, CREF/GAPDH counter-screens.
Assay [2] addresses PEG-3 (UniProt Q6IN02). Described as above. Particulars: HeLa PEG-Prom luciferase reporter, overnight, CREF/GAPDH counter-screens, mean of runs. Background: Reporter assays use an easily measured gene product as a stand-in for the process of interest.
Setting [3] is: run 1, dose range 1, individual replicate IC50 per panel.
[4] abbreviates: run 2, dose range 1, individual replicate IC50 per panel.

The structures appear in SMILES notation. The source made the active and inactive calls.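 Rule for the calls: active = mean IC50 for reducing PEG3 promoter reporter signal at or below a set limit, with IC50 above the limit in both counter screens; inactive = the rest, including counter screen hits.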

Sequence of PEG-3 (UniProt Q6IN02) (Q6IN02 whole entry, looked up): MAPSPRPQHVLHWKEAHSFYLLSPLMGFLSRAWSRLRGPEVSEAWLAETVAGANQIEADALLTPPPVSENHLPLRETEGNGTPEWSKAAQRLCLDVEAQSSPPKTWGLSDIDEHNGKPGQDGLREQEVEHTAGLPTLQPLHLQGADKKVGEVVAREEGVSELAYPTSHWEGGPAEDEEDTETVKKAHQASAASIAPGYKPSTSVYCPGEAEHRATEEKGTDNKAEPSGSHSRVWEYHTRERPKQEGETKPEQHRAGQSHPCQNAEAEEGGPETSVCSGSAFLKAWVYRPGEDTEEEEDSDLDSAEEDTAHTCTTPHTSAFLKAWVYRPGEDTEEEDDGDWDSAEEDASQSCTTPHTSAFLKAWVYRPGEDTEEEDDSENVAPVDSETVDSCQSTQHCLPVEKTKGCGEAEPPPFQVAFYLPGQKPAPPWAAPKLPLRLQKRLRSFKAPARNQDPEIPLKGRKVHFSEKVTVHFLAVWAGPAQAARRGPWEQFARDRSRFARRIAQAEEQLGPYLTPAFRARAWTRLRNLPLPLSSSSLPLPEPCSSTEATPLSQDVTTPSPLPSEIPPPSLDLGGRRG

For the compound `Cc1ccc(S(=O)(=O)c2nc(-c3ccccc3Cl)oc2N(C)C2CCN(C)CC2)cc1`, the half-maximal inhibitory concentration (IC50) (usually the midpoint of a concentration-inhibition curve) in assay [1] (setting [3]) stood at 32.7 µM; in assay [1] (setting [4]), 20.6 µM. In addition, the IC50 entry in assay [2] is “inactive”.
`Cc1ccc2cc3c(N)c4c(C)ccc(C)c4nc3nc2c1`: the IC50 in assay [1] (setting [3]) is above 100 µM; in assay [1] (setting [4]), 17.1 µM. Moreover, the IC50 entry in assay [2] is “inactive”.
For `O=Cc1cn(Cc2cccc(F)c2)c2ccccc12`, in that order: 22.6 µM, 38.8 µM and “inactive”.
For `CN(C)CCc1cc2c(c3c1ccc1ccccc13)OCO2` the same measures were 16.9 µM, 11.2 µM and 14 µM.
As for `O=C(CN1CCN(Cc2ccccc2Cl)CC1)N=Nc1c(O)[nH]c2ccccc12`, the half-inhibitory concentration (IC50) is 5.23 µM in assay [1] (setting [3]) and above 100 µM in assay [1] (setting [4]). For the same compound, the IC50 result in assay [2] was “inactive”.
For `CCOc1cccc2sc(N(CCCN(C)C)C(=O)c3ccc(S(=O)(=O)N(C)Cc4ccccc4)cc3)nc12` the same measures were 18.6 µM, 14.7 µM and 16.6 µM.
For `Cc1[nH]c2ccc(OC(F)(F)F)cc2c1CCNCc1cccc([N+](=O)[O-])c1` the same measures were 25.1 µM, above 100 µM and “inactive”.
As for `CCN1CCN(Cc2c(O)ccc3c2O/C(=C\C=C\c2ccccc2)C3=O)CC1`, the half-inhibitory concentration (IC50) in assay [1] (setting [3]) was determined as 46.6 µM; in assay [1] (setting [4]), 11.5 µM. For the same compound, the IC50 result in assay [2] was “inactive”.
For `CCOc1cc(/C=N/N=C(N)N)ccc1OCc1ccc(Cl)cc1`, in that order: 16.9 µM, 9.05 µM and 13 µM.
For `O=C1/C(=C/c2ccccc2Cl)SC(=S)N1CCCC(=O)N(CCO)c1ccccc1`, in that order: 18.9 µM, 16.7 µM and 17.8 µM.
For `CCCCCCCCCCCCCCC(O)C[N+](C)(CCO)CCO` (configuration not stated), in that order: 17.7 µM, 11 µM and 14.3 µM.
On to `COC(=O)c1c(NC(=O)c2ccc([N+](=O)[O-])o2)sc2c1CCN(C(C)C)C2`, for which the IC50 in assay [1] (setting [3]) was 19.2 µM; in assay [1] (setting [4]), 11.8 µM; in assay [2] it was 15.5 µM.
For `Cc1ccc(-n2cc(CNCCCn3ccnc3C)c(-c3ccc(F)cc3)n2)cc1` the same measures were 15.5 µM, 10.6 µM and 13 µM.
As for `O=C(Nc1ccc(CN2CCCCC2)cc1)Nc1ccc(Br)cc1Cl`, the half-maximal inhibitory concentration (IC50) in assay [1] (setting [3]) is 20.4 µM; in assay [1] (setting [4]), 19.8 µM. The IC50 entry in assay [2] was “inactive”.
`CCOC(=O)C1=C(COCCN)NC(C)=C(C(=O)OC)C1c1ccccc1Cl` (configuration not stated): the figures for the concentration for half-maximal inhibition (IC50) in assay [1] (setting [3]), in assay [1] (setting [4]) and in assay [2] were 19 µM, 12.1 µM and 15.6 µM, respectively.
In the case of `CC(C)(C)c1ccc(/C=N/Nc2ccc(C(=O)O)cc2)cc1`, the results for the half-inhibitory concentration (IC50) in assay [1] (setting [3]) and in assay [1] (setting [4]) were 36.7 µM and 28 µM, respectively. Also, the IC50 entry in assay [2] was “inactive”.
For `CC(=O)Nc1ccc(S(=O)(=O)N(Cc2ccco2)Cc2cc3ccccc3[nH]c2=O)cc1` the same measures were 18.5 µM, 22.4 µM and “inactive”.
For `CCN(CC)CCNC(=O)c1ccc(NC(=O)c2cccc(S(=O)(=O)N(C)C3CCCCC3)c2)cc1` the same measures were 29.1 µM, 25.6 µM and “inactive”.
For `COC(=O)c1cn(NC(=O)c2cc([N+](=O)[O-])ccc2F)c(=O)c2ccccc12` the same measures were 26.1 µM, 46.5 µM and “inactive”.
On to `O=C1CCC2S/C(=C/Nc3ccc(C(F)(F)F)cc3)C(=O)N12` (configuration not stated), for which the IC50 is 6.39 µM in assay [1] (setting [3]) and 47.7 µM in assay [1] (setting [4]). The IC50 entry in assay [2] was “inactive”.
For `CCC1(c2ccccc2)NC(=O)N(CC(=O)Nc2cc(S(=O)(=O)N3CCCCCC3)ccc2OC)C1=O` (configuration not stated), in that order: 13.9 µM, 13.5 µM and 13.7 µM.
For `CC1(C)CC(NC(=O)c2cccc(S(=O)(=O)N(Cc3ccccc3)c3ccccc3)c2)CC(C)(C)N1`, in that order: 18.6 µM, 18.9 µM and 18.8 µM.
For `Cc1ccccc1NC(=O)Nc1nc(C(N)C2CCCCC2)cs1` (configuration not stated) the same measures were 21.1 µM, 26.5 µM and “inactive”.
Consider `Cc1ccc2sc(N(CCCN(C)C)C(=O)c3ccc(S(=O)(=O)N4CCc5ccccc5C4)cc3)nc2c1C`, for which the results for the IC50 in assay [1] (setting [3]), in assay [1] (setting [4]) and in assay [2] were 15.6 µM, 19.2 µM and 17.4 µM, respectively.
For `CCOc1ccc2nc(N(CCCN(C)C)C(=O)c3ccc(C(=O)c4ccccc4)cc3)sc2c1`, in that order: 20.3 µM, 7.58 µM and 13.9 µM.
For `CCCCCc1ccc(OCCCC[n+]2cccc(C)c2)c(CCCCC)c1`, in that order: 16.4 µM, 10.7 µM and 13.6 µM.
For `Cc1cccc(C)c1-n1nnnc1C(c1ccccc1OC(F)(F)F)N1CCC(n2c(=O)[nH]c3ccccc32)CC1` (configuration not stated) the same measures were 20.8 µM, 4.64 µM and 12.7 µM.
As for `O=C(Nc1ccccc1N1CCOCC1)c1cc(-c2ccncc2)nc2ccccc12`, the IC50 in assay [1] (setting [3]) came out at 33 µM; in assay [1] (setting [4]), 78.3 µM. In assay [2], the IC50 entry was “inactive”.
For `COc1cc(C(=O)/C=C/c2cccnc2)c([N+](=O)[O-])cc1OC`, in that order: 19.3 µM, 17.3 µM and 18.3 µM.
For the compound `Cc1c(C(=O)Nc2ccc(S(=O)(=O)N(C)C3CCN(C)CC3)cc2)oc2c(Cl)cccc12`, the IC50 in assay [1] (setting [3]) is 16.5 µM; in assay [1] (setting [4]) it was 9.1 µM; in assay [2], 12.8 µM.
For `CN(CCOc1ccc(Cl)cc1)C(=O)c1cc(-c2ccco2)nc2ccccc12`, in that order: 15.9 µM, 14.4 µM and 15.1 µM.
`CC1(C)CC(NC(=O)c2sc3cc(Cl)ccc3c2Cl)CC(C)(C)N1`: the half-inhibitory concentration (IC50) in assay [1] (setting [3]) is 20.7 µM; in assay [1] (setting [4]) it was 15.6 µM; in assay [2], 18.1 µM.
`Cc1cccc2c1-c1sc(C(=O)NCCCN3CCCC(C)C3)cc1CO2` (configuration not stated): the 50% inhibitory concentration (IC50) in assay [1] (setting [3]) is 17.5 µM; in assay [1] (setting [4]), 13.7 µM; in assay [2], 15.6 µM.
For `Cc1ccccc1CN1Cc2cnnn2-c2ccccc2C1C#N` (configuration not stated), in that order: 15.6 µM, 12.1 µM and 13.9 µM.
As for `COc1ccc(CNC(=O)Nc2nc(C(N)Cc3ccc(F)cc3)cs2)cc1` (configuration not stated), the IC50 in assay [1] (setting [3]) is 16.6 µM; in assay [1] (setting [4]), 12.5 µM; in assay [2], 14.6 µM.
For `COc1ccc2c(c1)C=C([C@@H]1C[C@H]3CN(c4ccccc4)C(=O)[C@]34CCCN14)CO2` the same measures were above 100 µM, above 100 µM and > 100 µM (inactive).
For `O=S(=O)(/N=C(/Sc1ccccc1)c1ccccc1)c1ccccc1` the same measures were 28.9 µM, 19.1 µM and “inactive”.
With `Cc1cccc(-n2ncc3c(N(C)C4CCCCC4)ncnc32)c1`, the half-inhibitory concentration (IC50) in assay [1] (setting [3]) amounted to 22.6 µM; in assay [1] (setting [4]) it was 26.7 µM. The IC50 result in assay [2] is “inactive”.
For `CCc1ccc(O)c(CNCCNCc2cc(CC)ccc2O)c1`, in that order: 20.6 µM, 16.4 µM and 18.5 µM.
